# Laboratory results taken from the supplement of paper PMC10307832.
# Key:
# Assay in all cases: relative viability (nuclei count vs DMSO), 5 days (fraction); higher = more cells survive
# EHT 1864 + Navitoclax = compound: C1COCCN1CC2=CC(=O)C(=CO2)OCCCCCSC3=C4C=CC(=CC4=NC=C3)C(F)(F)F [EHT 1864] + CC1(C)CCC(c2ccc(Cl)cc2)=C(CN2CCN(c3ccc(C(=O)NS(=O)(=O)c4ccc(N[C@H](CCN5CCOCC5)CSc5ccccc5)c(S(=O)(=O)C(F)(F)F)c4)cc3)CC2)C1 [Navitoclax] (partner 0.5 µM)
# How it was run: (§1)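 The day after seeding in 1536-well plates, lung cancer cell lines were treated by pin tool with a single drug, or with a fixed anchor-drug dose together with five library-drug doses (not always all listed) in √10 steps. After 5 days, a combined fix-and-stain solution (final 0.05% Triton X-100, 1% formaldehyde, 1 ug/ml Hoechst) was added. Nuclei counted on 4× images gave relative viability as treated counts over vehicle counts, reported as the median of duplicate plates.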
# EHT 1864 + Linsitinib = compound: C1COCCN1CC2=CC(=O)C(=CO2)OCCCCCSC3=C4C=CC(=CC4=NC=C3)C(F)(F)F [EHT 1864] + C[C@]1(O)C[C@@H](c2nc(-c3ccc4ccc(-c5ccccc5)nc4c3)c3c(N)nccn32)C1 [Linsitinib] (partner 1 µM)
# How it was run: as §1
# EHT 1864 + Pemetrexed = compound: C1COCCN1CC2=CC(=O)C(=CO2)OCCCCCSC3=C4C=CC(=CC4=NC=C3)C(F)(F)F [EHT 1864] + Nc1nc2[nH]cc(CCc3ccc(C(=O)N[C@@H](CCC(=O)O)C(=O)O)cc3)c2c(=O)[nH]1 [Pemetrexed] (partner 0.2 µM)
# How it was run: as §1
# EHT 1864 + Vorinostat = compound: C1COCCN1CC2=CC(=O)C(=CO2)OCCCCCSC3=C4C=CC(=CC4=NC=C3)C(F)(F)F [EHT 1864] + O=C(CCCCCCC(=O)Nc1ccccc1)NO [Vorinostat] (partner 1 µM)
# How it was run: as §1
Cell Line,relative viability (EHT 1864 + Navitoclax; first compound 0.04 µM),relative viability (EHT 1864 + Navitoclax; first compound 0.1265 µM),relative viability (EHT 1864 + Navitoclax; first compound 0.4 µM),relative viability (EHT 1864 + Navitoclax; first compound 1.265 µM),relative viability (EHT 1864 + Navitoclax; first compound 4 µM),relative viability (EHT 1864 + Linsitinib; first compound 0.04 µM),relative viability (EHT 1864 + Linsitinib; first compound 0.1265 µM),relative viability (EHT 1864 + Linsitinib; first compound 0.4 µM),relative viability (EHT 1864 + Linsitinib; first compound 1.265 µM),relative viability (EHT 1864 + Linsitinib; first compound 4 µM),relative viability (EHT 1864 + Pemetrexed; first compound 0.04 µM),relative viability (EHT 1864 + Pemetrexed; first compound 0.1265 µM),relative viability (EHT 1864 + Pemetrexed; first compound 0.4 µM),relative viability (EHT 1864 + Pemetrexed; first compound 1.265 µM),relative viability (EHT 1864 + Pemetrexed; first compound 4 µM),relative viability (EHT 1864 + Vorinostat; first compound 0.04 µM),relative viability (EHT 1864 + Vorinostat; first compound 0.1265 µM),relative viability (EHT 1864 + Vorinostat; first compound 0.4 µM),relative viability (EHT 1864 + Vorinostat; first compound 1.265 µM),relative viability (EHT 1864 + Vorinostat; first compound 4 µM)
LU99A,0.689,0.566,0.716,0.818,0.933,0.514,0.4,0.5,0.607,0.539,0.196,0.178,0.179,0.186,0.19,0.58,0.347,0.426,0.579,0.324
LXF-289,0.952,0.837,0.885,0.811,0.939,0.926,0.929,0.883,0.898,0.821,0.857,0.894,0.835,0.769,0.843,0.773,0.697,0.712,0.735,0.734
NCI-H23,0.718,–,0.627,0.784,0.816,0.522,–,0.443,0.59,0.551,0.715,0.549,0.632,0.671,0.748,0.627,0.343,0.582,0.578,0.532
NCI-H322M,1.13,1.26,1.13,1.29,1.23,0.89,0.806,0.98,0.878,0.968,0.606,0.64,0.596,0.678,0.604,0.856,0.921,0.863,0.807,0.789
NCI-H441,0.542,0.536,0.513,0.611,0.233,0.517,0.574,0.503,0.461,0.561,0.28,–,0.286,0.241,0.255,0.975,–,0.713,0.75,0.735
NCI-H460,1.11,1.16,1.03,1.16,1.02,0.76,0.603,0.747,0.624,0.845,–,0.0604,0.0667,0.0607,0.0677,–,0.718,0.703,0.654,0.647
NCI-H520,0.999,1.07,1.06,1.08,1.06,0.917,0.998,0.747,0.813,0.913,0.67,0.588,0.758,0.627,0.604,0.734,0.628,0.696,0.758,0.715
NCI-H596,1.1,0.892,1.08,0.812,0.888,1.06,1.11,0.989,0.906,0.964,0.554,0.513,0.447,0.575,0.468,0.724,0.476,0.694,0.577,0.657
NCI-H647,0.981,0.837,1.17,1.12,1.05,1.03,1.13,1.2,1.15,0.983,0.203,0.13,0.164,0.157,0.177,0.612,0.455,0.512,0.762,0.485
NCI-H838,1.08,1.04,1.14,1.08,1.14,0.977,0.889,1.08,1.05,1.01,0.249,0.236,0.236,0.233,0.219,0.713,0.668,0.74,0.723,0.727
NCI-H1355,1.04,0.843,0.907,0.904,0.838,0.781,0.667,0.718,0.72,0.77,1.14,0.872,1.02,1.1,0.985,0.659,0.548,0.633,0.619,0.696
NCI-H1395,1.12,1.02,1.18,0.967,0.875,1.02,0.982,0.957,1.16,1.02,0.923,0.73,0.89,0.805,0.915,0.775,0.552,0.819,0.607,0.681
NCI-H1437,1.06,1.03,0.967,0.819,0.671,0.905,0.917,0.974,0.776,0.655,0.321,0.302,0.263,0.286,0.246,0.84,0.866,0.757,0.542,0.479
NCI-H1651,1.03,0.947,1.1,1,0.91,1.07,0.885,0.992,0.931,0.996,0.529,0.662,0.565,0.553,0.55,0.55,0.541,0.554,0.561,0.599
NCI-H1666,0.881,0.834,0.957,0.965,0.92,0.828,0.74,0.837,0.73,0.912,1.02,0.831,0.896,0.786,0.843,1.02,0.987,0.899,0.986,1.05
NCI-H1734,0.916,0.828,0.849,0.867,0.747,0.867,0.902,0.863,0.919,0.77,0.45,0.385,0.463,0.394,0.432,0.94,0.532,0.818,0.751,0.837

Cell Line,relative viability (EHT 1864 + Navitoclax; first compound 0.04 µM),relative viability (EHT 1864 + Navitoclax; first compound 0.1265 µM),relative viability (EHT 1864 + Navitoclax; first compound 0.4 µM),relative viability (EHT 1864 + Navitoclax; first compound 1.265 µM),relative viability (EHT 1864 + Navitoclax; first compound 4 µM),relative viability (EHT 1864 + Linsitinib; first compound 0.04 µM),relative viability (EHT 1864 + Linsitinib; first compound 0.1265 µM),relative viability (EHT 1864 + Linsitinib; first compound 0.4 µM),relative viability (EHT 1864 + Linsitinib; first compound 1.265 µM),relative viability (EHT 1864 + Linsitinib; first compound 4 µM),relative viability (EHT 1864 + Pemetrexed; first compound 0.04 µM),relative viability (EHT 1864 + Pemetrexed; first compound 0.1265 µM),relative viability (EHT 1864 + Pemetrexed; first compound 0.4 µM),relative viability (EHT 1864 + Pemetrexed; first compound 1.265 µM),relative viability (EHT 1864 + Pemetrexed; first compound 4 µM),relative viability (EHT 1864 + Vorinostat; first compound 0.04 µM),relative viability (EHT 1864 + Vorinostat; first compound 0.1265 µM),relative viability (EHT 1864 + Vorinostat; first compound 0.4 µM),relative viability (EHT 1864 + Vorinostat; first compound 1.265 µM),relative viability (EHT 1864 + Vorinostat; first compound 4 µM)
NCI-H1755,1.02,0.927,0.94,0.979,0.869,0.983,0.907,0.956,0.927,0.962,0.477,0.376,0.389,0.468,0.388,1,0.808,0.748,0.75,0.811
NCI-H1793,–,0.366,0.485,0.364,0.387,–,0.775,0.888,0.696,0.984,0.674,0.699,0.929,0.814,0.828,0.656,0.403,0.768,0.879,0.935
NCI-H1915,0.797,–,0.764,0.768,0.792,1.13,–,1.04,1.1,1.08,0.474,–,0.52,0.5,0.477,0.501,–,0.517,0.478,0.564
NCI-H1944,1.06,–,0.985,1.05,1.06,1.28,–,1.21,1.25,1.25,0.669,–,0.64,0.58,0.693,0.528,–,0.595,0.514,0.661
NCI-H1975,1.14,1.19,1.17,0.928,0.875,0.956,0.967,0.955,0.811,0.835,0.271,0.28,0.274,0.291,0.285,0.726,0.673,0.677,0.654,0.644
NCI-H1993,0.84,0.697,0.866,1.08,0.849,0.735,0.757,0.709,0.778,0.695,0.58,–,0.595,0.623,0.556,0.896,–,0.912,0.806,0.863
NCI-H2009,1.16,1.15,1.14,1.11,0.879,1.15,1.2,1.17,1.24,0.897,1.01,0.95,1.01,0.965,0.809,0.69,0.698,0.72,0.627,0.612
NCI-H2023,0.964,0.978,0.874,0.939,0.841,0.586,0.717,0.612,0.656,0.602,0.232,0.258,0.166,0.201,0.197,0.692,0.381,0.591,0.699,0.784
NCI-H2085,1.03,1.11,1.08,1.13,1.14,0.87,0.816,0.883,0.91,0.787,0.908,0.646,0.969,0.967,0.882,0.789,0.577,0.838,0.774,0.804
NCI-H2087,0.86,0.894,0.865,0.829,0.743,0.88,0.865,0.796,0.729,0.68,0.691,–,0.596,0.642,0.657,0.436,–,0.798,0.727,0.572
NCI-H2126,0.92,0.76,0.823,0.853,0.814,0.733,0.691,0.746,0.726,0.72,0.707,0.603,0.661,0.726,0.633,0.836,0.711,0.735,0.795,0.681
NCI-H2228,1.08,0.847,0.755,0.836,0.827,0.655,0.635,0.802,0.661,0.478,0.323,0.341,0.318,–,0.34,0.658,0.641,0.571,–,0.365
NCI-H2347,0.77,0.708,0.812,0.714,0.828,0.92,0.741,0.95,0.941,0.999,0.402,0.403,0.459,0.465,0.419,0.544,0.396,0.506,0.65,0.739
NCI-H2405,0.978,0.832,0.965,–,0.725,0.922,0.933,1.06,–,0.851,1.13,0.945,1.03,1.07,0.973,1.03,0.895,1.06,0.963,0.909
NCI-H3122,1.06,1.01,0.987,1.06,0.987,1.03,0.977,0.932,1.02,0.965,0.189,0.179,0.206,0.202,0.185,0.934,0.76,0.899,1.12,0.992
PC-3 [JPC-3],0.788,0.72,0.849,0.844,0.805,0.982,0.938,0.942,0.949,0.952,1.07,0.944,1.1,1.09,1.03,0.886,0.718,0.83,0.77,0.801
